Data taken from the supplement of paper PMC12463676, “Small-molecule dissolution of stress granules by redox modulation benefits ALS models” (Nature Chemical Biology, 2025).

Assays:
potassium arsenate = compound: O=[As]([O-])(O)O.[K+] [potassium arsenate]; assay: thermal stability z-score vs DMSO; higher = more thermally stabilized by treatment; details: HeLa; arsenate concentration 1 mM
Description: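 Cellular thermal proteome profiling in HeLa cells treated with 1 mM arsenate for 1 h (DMSO pretreatment), heated to ten temperatures (37-66.3 °C). Soluble protein was quantified by TMT mass spectrometry relative to DMSO controls; the thermal stability score was transformed to a z-score; mean of n = 3 experiments.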

lipoamide = compound: NC(=O)CCCCC1CCSS1 [lipoamide]; assay: as above; details: HeLa, lipoamide concentration 100 µM
Description: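 Cellular thermal proteome profiling in HeLa cells. Cells were treated with 100 µM lipoamide for 1 h, with or without 1 mM arsenate for a further 1 h, then heated to ten temperatures (37-66.3 °C), and soluble protein was quantified by TMT mass spectrometry relative to 0.1% DMSO controls. The thermal stability score (sum of log2 fold changes minus the abundance score) was transformed to a z-score; mean of n = 3 experiments.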

[1] = arsenate co-treatment: 1 mM arsenate 1 h
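Also: each temperature applied for 3 min, abundance score taken as mean log2 fold change at the two lowest temperatures, z-score obtained by mean subtraction and division by SD.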

Chain of UniProt Q01844 (Q01844 whole entry): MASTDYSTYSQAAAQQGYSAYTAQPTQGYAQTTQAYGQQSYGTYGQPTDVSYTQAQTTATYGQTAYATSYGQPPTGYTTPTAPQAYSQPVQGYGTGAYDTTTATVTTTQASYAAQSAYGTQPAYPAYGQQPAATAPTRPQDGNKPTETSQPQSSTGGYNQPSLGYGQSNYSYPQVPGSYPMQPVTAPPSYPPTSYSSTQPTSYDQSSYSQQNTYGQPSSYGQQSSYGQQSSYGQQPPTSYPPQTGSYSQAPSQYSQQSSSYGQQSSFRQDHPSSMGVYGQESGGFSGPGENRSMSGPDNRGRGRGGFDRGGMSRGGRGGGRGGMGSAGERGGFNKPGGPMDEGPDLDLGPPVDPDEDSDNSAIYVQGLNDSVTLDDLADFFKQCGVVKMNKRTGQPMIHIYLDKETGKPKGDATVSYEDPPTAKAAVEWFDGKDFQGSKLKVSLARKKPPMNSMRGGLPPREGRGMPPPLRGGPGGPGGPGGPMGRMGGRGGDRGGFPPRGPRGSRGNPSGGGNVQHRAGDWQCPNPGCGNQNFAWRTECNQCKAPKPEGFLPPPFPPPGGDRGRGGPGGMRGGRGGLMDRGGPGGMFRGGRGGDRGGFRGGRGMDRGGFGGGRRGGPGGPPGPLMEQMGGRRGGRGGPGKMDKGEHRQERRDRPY
Chain of UniProt Q9Y547 (Q9Y547 whole entry): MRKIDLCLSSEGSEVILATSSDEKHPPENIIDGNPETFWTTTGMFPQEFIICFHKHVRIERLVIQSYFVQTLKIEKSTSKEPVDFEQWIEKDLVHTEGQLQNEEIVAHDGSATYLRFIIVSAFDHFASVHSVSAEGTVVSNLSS
Chain of UniProt Q8TAA5 (Q8TAA5 whole entry): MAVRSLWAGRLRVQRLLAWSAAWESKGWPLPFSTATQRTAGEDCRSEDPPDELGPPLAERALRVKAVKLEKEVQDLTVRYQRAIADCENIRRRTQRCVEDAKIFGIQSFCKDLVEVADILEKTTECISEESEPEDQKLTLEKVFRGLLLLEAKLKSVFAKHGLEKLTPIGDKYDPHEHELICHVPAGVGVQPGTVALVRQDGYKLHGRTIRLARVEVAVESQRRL
Chain of UniProt Q5T1M5 (Q5T1M5 whole entry): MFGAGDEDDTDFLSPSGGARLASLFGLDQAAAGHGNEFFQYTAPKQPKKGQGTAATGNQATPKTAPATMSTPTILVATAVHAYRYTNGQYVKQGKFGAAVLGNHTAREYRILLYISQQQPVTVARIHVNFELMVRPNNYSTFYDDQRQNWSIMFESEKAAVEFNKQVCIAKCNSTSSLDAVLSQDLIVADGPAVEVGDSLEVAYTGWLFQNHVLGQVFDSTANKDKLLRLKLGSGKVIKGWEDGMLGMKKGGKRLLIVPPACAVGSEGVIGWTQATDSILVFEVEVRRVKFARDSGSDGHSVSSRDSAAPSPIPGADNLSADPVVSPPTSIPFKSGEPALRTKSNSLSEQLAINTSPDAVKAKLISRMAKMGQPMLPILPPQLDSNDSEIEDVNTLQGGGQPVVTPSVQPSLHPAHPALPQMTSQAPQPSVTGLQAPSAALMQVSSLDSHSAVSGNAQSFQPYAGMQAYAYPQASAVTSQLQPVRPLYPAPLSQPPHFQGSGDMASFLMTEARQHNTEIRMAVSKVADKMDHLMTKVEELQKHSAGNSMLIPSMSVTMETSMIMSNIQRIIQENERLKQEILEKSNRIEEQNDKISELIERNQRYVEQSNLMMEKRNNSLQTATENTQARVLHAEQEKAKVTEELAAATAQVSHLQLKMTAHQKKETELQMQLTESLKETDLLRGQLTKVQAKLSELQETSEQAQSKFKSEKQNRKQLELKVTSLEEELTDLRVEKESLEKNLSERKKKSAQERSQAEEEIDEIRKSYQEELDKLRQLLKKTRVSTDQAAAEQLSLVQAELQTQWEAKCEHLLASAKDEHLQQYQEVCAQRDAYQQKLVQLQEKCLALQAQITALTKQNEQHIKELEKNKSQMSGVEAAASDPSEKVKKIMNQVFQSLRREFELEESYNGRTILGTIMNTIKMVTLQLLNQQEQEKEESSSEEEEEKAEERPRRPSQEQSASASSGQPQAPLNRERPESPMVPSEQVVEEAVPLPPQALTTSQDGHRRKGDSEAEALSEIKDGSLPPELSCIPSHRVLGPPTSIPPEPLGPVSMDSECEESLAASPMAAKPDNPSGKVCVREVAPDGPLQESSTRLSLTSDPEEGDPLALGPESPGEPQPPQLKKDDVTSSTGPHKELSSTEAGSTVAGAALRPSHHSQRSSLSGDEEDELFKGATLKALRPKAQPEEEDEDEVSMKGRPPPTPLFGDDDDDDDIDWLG
Chain of UniProt O00629 (O00629 whole entry): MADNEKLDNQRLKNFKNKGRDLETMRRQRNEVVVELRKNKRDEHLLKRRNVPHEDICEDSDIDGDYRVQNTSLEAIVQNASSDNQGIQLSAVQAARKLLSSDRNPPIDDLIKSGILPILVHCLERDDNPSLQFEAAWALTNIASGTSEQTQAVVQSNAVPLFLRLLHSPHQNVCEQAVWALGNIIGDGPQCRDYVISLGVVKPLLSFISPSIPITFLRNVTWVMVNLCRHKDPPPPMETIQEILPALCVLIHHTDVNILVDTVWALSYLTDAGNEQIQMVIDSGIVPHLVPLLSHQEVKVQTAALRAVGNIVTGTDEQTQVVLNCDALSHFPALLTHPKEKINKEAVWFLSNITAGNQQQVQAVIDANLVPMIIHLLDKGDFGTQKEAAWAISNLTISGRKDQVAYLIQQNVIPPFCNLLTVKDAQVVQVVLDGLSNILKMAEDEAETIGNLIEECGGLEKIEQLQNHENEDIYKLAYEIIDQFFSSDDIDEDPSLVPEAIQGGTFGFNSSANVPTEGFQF
Chain of UniProt Q9NVM6 (Q9NVM6 whole entry): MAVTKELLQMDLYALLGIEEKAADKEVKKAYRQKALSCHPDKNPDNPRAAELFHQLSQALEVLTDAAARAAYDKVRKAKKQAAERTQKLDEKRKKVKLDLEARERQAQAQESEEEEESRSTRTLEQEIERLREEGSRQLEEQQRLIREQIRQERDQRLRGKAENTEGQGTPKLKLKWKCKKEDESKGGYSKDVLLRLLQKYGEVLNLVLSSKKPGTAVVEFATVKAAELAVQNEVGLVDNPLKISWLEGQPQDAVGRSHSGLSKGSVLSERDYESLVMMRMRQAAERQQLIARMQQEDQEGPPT
Chain of UniProt Q9Y5P4 (Q9Y5P4 whole entry): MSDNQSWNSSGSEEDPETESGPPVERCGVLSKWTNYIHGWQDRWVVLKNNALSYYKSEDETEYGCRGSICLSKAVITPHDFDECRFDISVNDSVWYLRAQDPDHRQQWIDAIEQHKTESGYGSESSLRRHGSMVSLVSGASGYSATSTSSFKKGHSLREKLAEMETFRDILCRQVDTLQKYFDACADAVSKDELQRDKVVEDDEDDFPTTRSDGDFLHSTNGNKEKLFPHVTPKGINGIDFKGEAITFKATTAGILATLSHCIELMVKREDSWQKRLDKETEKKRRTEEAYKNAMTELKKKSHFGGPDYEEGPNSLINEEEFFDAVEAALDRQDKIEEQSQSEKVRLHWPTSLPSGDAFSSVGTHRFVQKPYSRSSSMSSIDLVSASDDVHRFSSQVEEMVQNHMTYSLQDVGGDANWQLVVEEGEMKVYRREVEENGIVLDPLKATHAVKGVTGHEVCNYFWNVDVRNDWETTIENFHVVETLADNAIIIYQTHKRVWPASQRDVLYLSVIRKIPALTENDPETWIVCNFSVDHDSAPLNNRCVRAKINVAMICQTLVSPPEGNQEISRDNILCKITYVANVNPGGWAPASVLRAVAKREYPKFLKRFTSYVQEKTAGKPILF
Chain of UniProt O75223 (O75223 whole entry): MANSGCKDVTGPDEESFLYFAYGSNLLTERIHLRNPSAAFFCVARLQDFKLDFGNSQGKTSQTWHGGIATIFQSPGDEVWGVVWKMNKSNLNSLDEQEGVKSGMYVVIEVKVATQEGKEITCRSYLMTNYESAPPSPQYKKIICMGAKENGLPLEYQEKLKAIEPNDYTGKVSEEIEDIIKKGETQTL
Chain of UniProt O95671 (O95671 whole entry): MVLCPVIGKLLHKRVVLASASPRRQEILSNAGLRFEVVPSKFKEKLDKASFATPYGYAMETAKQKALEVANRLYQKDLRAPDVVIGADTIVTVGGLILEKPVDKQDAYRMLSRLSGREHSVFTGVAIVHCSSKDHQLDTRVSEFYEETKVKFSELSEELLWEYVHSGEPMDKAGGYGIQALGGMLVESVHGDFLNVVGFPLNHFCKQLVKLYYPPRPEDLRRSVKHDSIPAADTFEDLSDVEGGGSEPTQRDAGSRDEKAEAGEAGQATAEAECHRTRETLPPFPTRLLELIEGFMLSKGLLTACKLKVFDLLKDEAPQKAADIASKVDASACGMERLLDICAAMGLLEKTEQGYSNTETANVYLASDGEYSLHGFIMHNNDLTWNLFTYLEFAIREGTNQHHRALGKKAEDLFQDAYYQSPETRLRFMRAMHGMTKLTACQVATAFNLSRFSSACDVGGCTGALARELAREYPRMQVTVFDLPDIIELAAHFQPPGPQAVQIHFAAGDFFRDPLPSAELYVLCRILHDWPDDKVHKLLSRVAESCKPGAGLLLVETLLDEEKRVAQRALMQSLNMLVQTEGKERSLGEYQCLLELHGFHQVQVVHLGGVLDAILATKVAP
Chain of UniProt P09429 (P09429 whole entry): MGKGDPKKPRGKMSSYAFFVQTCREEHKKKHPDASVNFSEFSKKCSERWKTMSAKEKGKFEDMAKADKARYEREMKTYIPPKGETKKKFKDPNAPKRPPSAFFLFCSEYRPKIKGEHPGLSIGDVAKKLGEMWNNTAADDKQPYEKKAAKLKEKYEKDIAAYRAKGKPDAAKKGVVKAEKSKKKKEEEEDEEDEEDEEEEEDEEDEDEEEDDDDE
Chain of UniProt Q9H3K6 (Q9H3K6 whole entry): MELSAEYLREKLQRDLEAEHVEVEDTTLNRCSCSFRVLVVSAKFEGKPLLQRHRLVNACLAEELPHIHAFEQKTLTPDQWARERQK
Chain of UniProt Q4G0I0 (Q4G0I0 whole entry): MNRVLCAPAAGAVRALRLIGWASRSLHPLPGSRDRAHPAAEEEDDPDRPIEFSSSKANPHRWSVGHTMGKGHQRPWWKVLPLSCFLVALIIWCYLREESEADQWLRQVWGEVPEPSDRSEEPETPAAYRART

Target | thermal stability z-score (potassium arsenate) | thermal stability z-score (lipoamide; [1]) | thermal stability z-score (lipoamide; arsenate co-treatment: none)
CCSMST1 (UniProt Q4G0I0) | 0.624 | 2.5 | 2.37
UBXN7 (UniProt O94888) | -0.679 | -0.462 | 0.55
NDUFAF4 (UniProt Q9P032) | 0.182 | -0.153 | 0.199
MAN1A2 (UniProt O60476) | -0.352 | -0.432 | -0.498
INPPL1 (UniProt O15357) | 0.0386 | -0.527 | -0.154
ITFG2 (UniProt Q969R8) | -0.266 | 1.01 | 0.534
ABHD11 (UniProt Q8NFV4) | 0.254 | 0.183 | 0.151
FOXRED2 (UniProt Q8IWF2) | 0.897 | -1.43 | -1.2
CEP290 (UniProt O15078) | 0.0798 | 0.613 | 0.238
STX10 (UniProt O60499) | 0.516 | -0.387 | -0.00805
ZC3H11A (UniProt O75152) | -0.845 | 0.0837 | -0.0442
SUPT5H (UniProt O00267) | -0.186 | 0.685 | -0.0241
MYO18A | 0.197 | -0.283 | 0.122
BMP2K (UniProt Q9NSY1) | 0.122 | -0.986 | -0.217
DECR1 (UniProt Q16698) | -0.0171 | -0.133 | 0.18
MEA1 (UniProt Q16626) | 0.711 | 1.48 | 1.28
ARFGAP3 (UniProt Q9NP61) | 0.0267 | 0.116 | 0.294
DCTN3 (UniProt O75935) | 0.72 | 0.0144 | 0.489
RPS23 (UniProt P62266) | -0.0437 | -0.0441 | 0.207
GGCT (UniProt O75223) | 1.11 | 1.7 | 1.02
FKBP15 (UniProt Q5T1M5) | 0.523 | -0.422 | -0.17
COL4A3BP (UniProt Q9Y5P4) | 0.568 | -0.466 | 0.862
HMGB1 (UniProt P09429) | 0.309 | 0.26 | 0.59
ELMSAN1 (UniProt Q6PJG2) | -0.16 | 0.273 | 0.0593

Target | thermal stability z-score (potassium arsenate) | thermal stability z-score (lipoamide; [1]) | thermal stability z-score (lipoamide; arsenate co-treatment: none)
PNPLA8 (UniProt Q9NP80) | -0.332 | 0.00209 | 0.148
SLC33A1 (UniProt O00400) | 0.345 | 0.69 | 1.25
TATDN1 (UniProt Q6P1N9) | 0.169 | 0.263 | 0.514
RBM26 (UniProt Q5T8P6) | -0.536 | -0.0221 | 0.172
ASMTL (UniProt O95671) | -0.959 | 1.09 | 1.31
ODF2 (UniProt Q5BJF6) | -0.129 | 0.0591 | 0.0281
KPNA4 (UniProt O00629) | 0.399 | 0.791 | 0.48
RPS14 (UniProt P62263) | -0.926 | 0.641 | 0.21
ASUN (UniProt Q9NVM9) | 0.906 | 0.368 | 0.404
HERPUD1 (UniProt Q15011) | -0.94 | 0.186 | -0.201
OAS1 (UniProt P00973) | -0.247 | -0.156 | 0.0182
WDR81 (UniProt Q562E7) | 0.105 | -0.0547 | -0.0815
BOLA2 (UniProt Q9H3K6) | 0.583 | 0.16 | 0.49
NDUFB11 (UniProt Q9NX14) | 0.94 | 0.566 | 0.514
HNRNPA0 (UniProt Q13151) | -0.778 | -1.04 | -0.776
TTLL12 (UniProt Q14166) | -0.427 | 1.14 | 0.696
TLE2 (UniProt Q04725) | 0.141 | -0.165 | 0.842
VPS51 (UniProt Q9UID3) | -0.285 | -0.0785 | 0.169
C11ORF68 (UniProt Q9H3H3) | 0.538 | -0.438 | -0.551
FRYL (UniProt O94915) | 0.161 | -0.0982 | 0.156
TPMT (UniProt P51580) | -0.162 | 0.308 | 0.31
THOC1 (UniProt Q96FV9) | -0.258 | 0.298 | -0.0559
FSCN1 (UniProt Q16658) | -1.09 | 0.0281 | -0.236
RAD21 (UniProt O60216) | 0.297 | 0.628 | 0.377

Target | thermal stability z-score (potassium arsenate) | thermal stability z-score (lipoamide; [1]) | thermal stability z-score (lipoamide; arsenate co-treatment: none)
TACC1 (UniProt O75410) | 0.526 | 0.293 | 0.0761
DNAJC17 (UniProt Q9NVM6) | -0.299 | 0.0174 | 0.0121
DAAM1 (UniProt Q9Y4D1) | 0.17 | -0.0152 | -0.226
GRPEL2 (UniProt Q8TAA5) | 0.107 | -0.105 | -0.123
FBXL18 (UniProt Q96ME1) | -0.711 | 0.241 | 0.119
RNASEH2C (UniProt Q8TDP1) | -0.406 | -0.258 | -0.493
GPR108 (UniProt Q9NPR9) | 0.967 | 0.455 | -0.359
DDR2 (UniProt Q16832) | -0.163 | -0.251 | -0.189
CMPK1 (UniProt P30085) | 2.02 | -0.127 | 0.136
FUCA2 (UniProt Q9BTY2) | 1.09 | -0.251 | -0.214
SLC43A2 (UniProt Q8N370) | -1.03 | 0.846 | 1.05
RBM22 (UniProt Q9NW64) | -1.96 | -0.0944 | 0.0307
UIMC1 (UniProt Q96RL1) | 0.872 | -0.168 | 0.424
TMEM2 (UniProt Q9UHN6) | 0.466 | -0.117 | -0.196
SEC24D (UniProt O94855) | -0.578 | 0.087 | -0.238
MPHOSPH6 (UniProt Q99547) | -2.13 | 0.29 | -0.917
TTC5 (UniProt Q8N0Z6) | -0.0548 | -0.0841 | 0.0677
HSPB11 (UniProt Q9Y547) | -0.48 | -0.309 | 0.124
EWSR1 (UniProt Q01844) | -0.604 | 0.0495 | 0.235
NGLY1 (UniProt Q96IV0) | 0.0507 | -0.149 | -0.0587
TAGLN2 (UniProt P37802) | -0.184 | 0.511 | 0.94
RPS25 (UniProt P62851) | -0.573 | 0.792 | 0.586
FAR1 (UniProt Q8WVX9) | 0.544 | -0.177 | -0.0751
